Source: patent US11377469B2, “CD73 inhibitors” (ORIC Pharmaceuticals, Inc., priority 2017, dated 2022)

Target: CD73 (Homo sapiens (Human), UniProt P21589)
Experiment: Biochemical Assay (CD73 inhibition, AMP hydrolysis, Malachite Green readout)
Conditions: CD73 0.3208 nM, AMP 15 μM, Tris-HCl pH 7.4, Malachite Green absorbance
Description: Example A1: Biochemical Assay
Assay Reaction Conditions
• Assay Volume: 70 μl • Reaction Volume: 50 μl • CD73: 0.3208 nM • AMP: 15 μM • Assay Buffer: 2 5 mM Tris-HCL, pH 7.4, 0.01% Brij-35, 0.01% BSA, 5 mM MgCl2 Assay Procedure:
Made dose titration of testing compounds in assay buffer, 10 points ½ log titrations in duplicates starting at 100 μM.
Added 25 μl of CD73 to each well for a final concentration of 320 pM.
Incubated at RT for 15 min.
Added 25 μl of AMP to each well for a final concentration of 15 μM.
Incubated at RT for 10 min.
Added 10 μl of Malachite Green Reagent A, incubate at RT for 10 min.
Added 10 μl of Malachite Green Reagent B, incubate at RT for 45 min. […]
The ability of the compounds disclosed herein to inhibit CD73 activity was quantified and the respective IC50 values were determined. Table 1 provides the biochemical IC50 values of compounds disclosed herein.

CD73, sequence (P21589 27-574): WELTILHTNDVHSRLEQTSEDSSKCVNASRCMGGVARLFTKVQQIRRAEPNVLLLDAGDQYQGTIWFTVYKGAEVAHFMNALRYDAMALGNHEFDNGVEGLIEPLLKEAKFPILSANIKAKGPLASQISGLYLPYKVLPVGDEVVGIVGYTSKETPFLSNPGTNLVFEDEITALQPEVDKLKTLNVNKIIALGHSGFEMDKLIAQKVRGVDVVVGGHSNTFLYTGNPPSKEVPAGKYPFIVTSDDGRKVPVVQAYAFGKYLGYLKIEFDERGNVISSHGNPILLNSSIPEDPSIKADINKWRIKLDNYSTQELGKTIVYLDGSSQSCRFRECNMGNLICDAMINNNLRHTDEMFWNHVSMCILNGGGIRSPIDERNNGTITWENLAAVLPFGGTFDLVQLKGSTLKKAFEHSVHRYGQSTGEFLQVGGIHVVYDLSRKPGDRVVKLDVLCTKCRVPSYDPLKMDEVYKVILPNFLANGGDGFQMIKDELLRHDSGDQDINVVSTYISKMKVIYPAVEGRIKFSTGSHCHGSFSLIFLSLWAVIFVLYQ

## CN(c1nc(Cl)nc2c1cnn2[C@@H]1O[C@H](COC(=O)CP(=O)(O)O)[C@@H](O)[C@H]1O)[C@H]1CCc2ccccc21 [Example 8, (2-(((2R,3S,4R,5R)-5-(6-Chloro-4-(((S)-2,3-dihydro-1H-inden-1-yl)(methyl)amino)-1H-pyrazolo[3,4-d]pyrimidin-1-yl)-3,4-dihydroxytetrahydrofuran-2-yl)methoxy)-2-oxoethyl)phosphonic acid]
  IC50: 500 to 1000 nM

## C[C@@]1(O)[C@@H](COCP(=O)(O)O)O[C@@H](n2ncc3c(NCc4ccccc4Cl)nc(Cl)nc32)[C@@H]1O [Example 19, ((((2R,3S,4R,5R)-5-(6-Chloro-4-((2-chlorobenzyl)amino)-1H-pyrazolo[3,4-d]pyrimidin-1-yl)-3,4-dihydroxy-3-methyltetrahydrofuran-2-yl)methoxy)methyl)phosphonic acid]
  IC50: 500 to 1000 nM

## O=P(O)(O)COC[C@H]1O[C@@H](n2ncc3c(NC4CCOCC4)nc(Cl)nc32)[C@H](O)[C@@H]1O [Example 73, ((((2R,3S,4R,5R)-5-(6-chloro-4-((tetrahydro-2H-pyran-4-yl)amino)-1H-pyrazolo[3,4-d]pyrimidin-1-yl)-3,4-dihydroxytetrahydrofuran-2-yl)methoxy)methyl)phosphonic acid]
  IC50: ≤ 500 nM

## O=P(O)(O)CS(=O)(=O)C[C@H]1O[C@@H](n2ncc3c(NC4Cc5ccccc5C4)nc(Cl)nc32)[C@H](O)[C@@H]1O [Example 126, (((((2S,3S,4R,5R)-5-(6-chloro-4-((2,3-dihydro-1H-inden-2-yl)amino)-1H-pyrazolo[3,4-d]pyrimidin-1-yl)-3,4-dihydroxytetrahydrofuran-2-yl)methyl)sulfonyl)methyl)phosphonic acid]
  IC50: ≤ 500 nM

## O=P(O)(O)CS(=O)(=O)C[C@H]1O[C@@H](n2ncc3c(NCc4cccc(Cl)c4)nc(Cl)nc32)[C@H](O)[C@@H]1O [Example 61, (((((2S,3S,4R,5R)-5-(6-chloro-4-((3-chlorobenzyl)amino)-1H-pyrazolo[3,4-d]pyrimidin-1-yl)-3,4-dihydroxytetrahydrofuran-2-yl)methyl)sulfonyl)methyl)phosphonic acid]
  IC50: ≤ 500 nM

## CN(CC1CC1)c1nc(Cl)nc2c1cnn2[C@@H]1O[C@H](CS(=O)(=O)CP(=O)(O)O)[C@@H](O)[C@H]1O [Example 84, (((((2S,3S,4R,5R)-5-(6-chloro-4-((cyclopropylmethyl)(methyl)amino)-1H-pyrazolo[3,4-d]pyrimidin-1-yl)-3,4-dihydroxytetrahydrofuran-2-yl)methyl)sulfonyl)methyl)phosphonic acid]
  IC50: ≤ 500 nM

## O=P(O)(O)CS(=O)(=O)C[C@H]1O[C@@H](n2nnc3c(NC4CCC4)nc(Cl)nc32)[C@H](O)[C@@H]1O [Example 110, (((((2S,3S,4R,5R)-5-(5-chloro-7-(cyclobutylamino)-3H-[1,2,3]triazolo[4,5-d]pyrimidin-3-yl)-3,4-dihydroxytetrahydrofuran-2-yl)methyl)sulfonyl)methyl)phosphonic acid]
  IC50: ≤ 500 nM

## O=P(O)(O)COC[C@H]1O[C@@H](n2ncc3c(NCC4CCC4)nc(Cl)nc32)[C@H](O)[C@@H]1O [Example 68, ((((2R,3S,4R,5R)-5-(6-chloro-4-((cyclobutylmethyl)amino)-1H-pyrazolo[3,4-d]pyrimidin-1-yl)-3,4-dihydroxytetrahydrofuran-2-yl)methoxy)methyl)phosphonic acid]
  IC50: ≤ 500 nM

## O=P(O)(O)CS(=O)(=O)C[C@H]1O[C@@H](n2nnc3c(NC4CCCC4)nc(Cl)nc32)[C@H](O)[C@@H]1O [Example 108, (((((2S,3S,4R,5R)-5-(5-chloro-7-(cyclopentylamino)-3H-[1,2,3]triazolo[4,5-d]pyrimidin-3-yl)-3,4-dihydroxytetrahydrofuran-2-yl)methyl)sulfonyl)methyl)phosphonic acid]
  IC50: ≤ 500 nM

## O=P(O)(O)COC[C@H]1O[C@@H](n2ncc3c(NCc4cccc5ccccc45)nc(Cl)nc32)[C@H](O)[C@@H]1O [Example 49, ((((2R,3S,4R,5R)-5-(6-chloro-4-((naphthalen-1-ylmethyl)amino)-1H-pyrazolo[3,4-d]pyrimidin-1-yl)-3,4-dihydroxytetrahydrofuran-2-yl)methoxy)methyl)phosphonic acid]
  IC50: ≤ 500 nM

## CC(=O)N(c1nc(Cl)nc2c1cnn2[C@@H]1O[C@H](COCP(=O)(O)O)[C@@H](O)[C@H]1O)C1CCCC1 [Example 99, ((((2R,3S,4R,5R)-5-(6-Chloro-4-(N-cyclopentylacetamido)-1H-pyrazolo[3,4-d]pyrimidin-1-yl)-3,4-dihydroxytetrahydrofuran-2-yl)methoxy)methyl)phosphonic acid]
  IC50: ≤ 500 nM

## O=P(O)(O)COC[C@H]1O[C@@H](n2ncc3c(NCc4ncccn4)nc(Cl)nc32)[C@H](O)[C@@H]1O [Example 90, ((((2R,3S,4R,5R)-5-(6-chloro-4-((pyrimidin-2-ylmethyl)amino)-1H-pyrazolo[3,4-d]pyrimidin-1-yl)-3,4-dihydroxytetrahydrofuran-2-yl)methoxy)methyl)phosphonic acid]
  IC50: 500 to 1000 nM

## O=P(O)(O)CS(=O)(=O)C[C@H]1O[C@@H](n2ncc3c(N[C@H]4CCc5ccccc54)nc(Cl)nc32)[C@H](O)[C@@H]1O [Example 123, (((((2S,3S,4R,5R)-5-(6-chloro-4-(((S)-2,3-dihydro-1H-inden-1-yl)amino)-1H-pyrazolo[3,4-d]pyrimidin-1-yl)-3,4-dihydroxytetrahydrofuran-2-yl)methyl)sulfonyl)methyl)phosphonic acid]
  IC50: ≤ 500 nM

## N#CC1(CNc2nc(Cl)nc3c2cnn3[C@@H]2O[C@H](COCP(=O)(O)O)[C@@H](O)[C@H]2O)CC1 [Example 138, ((((2R,3S,4R,5R)-5-(6-chloro-4-(((1-cyanocyclopropyl)methyl)amino)-1H-pyrazolo[3,4-d]pyrimidin-1-yl)-3,4-dihydroxytetrahydrofuran-2-yl)methoxy)methyl)phosphonic acid]
  IC50: ≤ 500 nM

## CN(C[C@H]1O[C@@H](n2ncc3c(NC4CCCC4)nc(Cl)nc32)[C@H](O)[C@@H]1O)S(=O)(=O)CP(=O)(O)O [Example 98, ((N-(((2R,3S,4R,5R)-5-(6-Chloro-4-(cyclopentylamino)-1H-pyrazolo[3,4-d]pyrimidin-1-yl)-3,4-dihydroxytetrahydrofuran-2-yl)methyl)-N-methylsulfamoyl)methyl)phosphonic acid]
  IC50: ≤ 500 nM

## CC(C)CNc1nc(NCc2cccc(Cl)c2)c2cnn([C@@H]3O[C@H](COCP(=O)(O)O)[C@@H](O)[C@H]3O)c2n1 [Example 67, ((((2R,3S,4R,5R)-5-(4-((3-chlorobenzyl)amino)-6-(isobutylamino)-1H-pyrazolo[3,4-d]pyrimidin-1-yl)-3,4-dihydroxytetrahydrofuran-2-yl)methoxy)methyl)phosphonic acid]
  IC50: > 1000 nM

## CN(c1nc(Cl)nc2c1nnn2[C@@H]1O[C@H](COCP(=O)(O)O)[C@@H](O)[C@H]1O)[C@H]1CCc2ccccc21 [Example 26, ((((2R,3S,4R,5R)-5-(5-chloro-7-(((S)-2,3-dihydro-1H-inden-1-yl)(methyl)amino)-3H-[1,2,3]triazolo[4,5-d]pyrimidin-3-yl)-3,4-dihydroxytetrahydrofuran-2-yl)methoxy)methyl)phosphonic acid]
  IC50: 500 to 1000 nM
